Results reported in PubChem BioAssay (NCI).
Where “and” joins values, the source holds several entries; their conditions need not be identical. Equal entries are not always repeated.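 Grown in 96-well plates, cells were treated for 48 hours with each compound at five concentrations. Insufficient inhibition: endpoint recorded as highest concentration tested. GI50 marks 50% less growth. TGI: concentration producing complete growth inhibition.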

How the values were obtained:
Assay in all cases: DTP human tumour cell line panel, 48 h
NCI-H522 lung = system: NCI-H522 lung
ACHN renal = system: ACHN renal
COLO 205 colon = system: COLO 205 colon
OVCAR-3 ovarian = system: OVCAR-3 ovarian
NCI-H23 lung = system: NCI-H23 lung
U251 CNS = system: U251 CNS
HCC-2998 colon = system: HCC-2998 colon
HCT-15 colon = system: HCT-15 colon
PC-3 prostate = system: PC-3 prostate
KM12 colon = system: KM12 colon
HL-60(TB) leukemia = system: HL-60(TB) leukemia
NCI/ADR-RES ovarian = system: NCI/ADR-RES ovarian
SF-539 CNS = system: SF-539 CNS

| SMILES | TGI (NCI-H522 lung) [µM] | TGI (ACHN renal) [µM] | TGI (COLO 205 colon) | GI50 (OVCAR-3 ovarian) | TGI (OVCAR-3 ovarian) | TGI (NCI-H23 lung) [µM] | TGI (U251 CNS) [µM] | GI50 (HCC-2998 colon) | GI50 (HCT-15 colon) | GI50 (PC-3 prostate) | TGI (PC-3 prostate) [µM] | GI50 (KM12 colon) | TGI (KM12 colon) | TGI (HL-60(TB) leukemia) [µM] | GI50 (NCI/ADR-RES ovarian) | TGI (SF-539 CNS) [µM] | TGI (HCC-2998 colon) [µM] | TGI (HCT-15 colon) [µM] | TGI (NCI/ADR-RES ovarian) [µM] |
| --- | --- | --- | --- | --- | --- | --- | --- | --- | --- | --- | --- | --- | --- | --- | --- | --- | --- | --- | --- |
| CC[C@@]1(O)C(=O)OCc2c1cc1n(c2=O)Cc2c-1nc1ccccc1c2C=Nc1ccc(N[C@@H]2c3cc4c(cc3[C@@H](c3cc(OC)c(O)c(OC)c3)[C@H]3C(=O)OC[C@@H]32)OCO4)cc1 | > 100 | 0.0374 | > 100 µM and 35.8 µM | 0.557 µM and 0.185 µM | 6.01 µM and 0.74 µM | 0.133 | > 48.8 | 0.369 µM and 0.131 µM | 1.08 µM and 0.236 µM | 0.822 µM and 0.0864 µM | > 100 | 1.69 µM and 0.269 µM | > 44.3 µM and 6.24 µM | > 100 | 0.0449 µM and < 0.01 µM | 0.132 |  |  |  |
| CC(=O)N1c2ccccc2C2=NN=C(N(C)C)SC21 (configuration not stated) | 6.68 | 10.4 | 12.9 µM |  | 9.46 µM | 19.3 | 10.8 |  |  |  | 18 |  | 11.2 µM | 5.07 |  | 18.3 | 12.5 | 15.6 | 10.4 |
| CCOC(=O)NC(Nc1cccc(F)c1)(C(F)(F)F)C(F)(F)F | > 100 | > 100 | > 100 µM |  | > 100 µM | > 100 | > 100 |  |  |  | > 100 |  | > 100 µM | > 100 |  | > 100 | > 100 | > 100 | > 100 |
| CCOC(=O)CCN1C(=O)c2ccc(NC(=O)C(=O)O)cc2S1(=O)=O | > 100 | > 100 | > 100 µM |  | > 100 µM | > 100 | > 100 |  |  |  | > 100 |  | > 100 µM | > 100 |  | > 100 | > 100 | > 100 | > 100 |
| CCOC(=O)NC(OCCN(C)C)(C(F)(F)F)C(F)(F)F | > 100 | > 100 | > 100 µM |  | > 100 µM | > 100 | > 100 |  |  |  | > 100 |  | > 100 µM | > 100 |  | > 100 | > 100 | > 100 | > 100 |
| CSC1=C(C)S/C(=C\c2ccc(/C=C3\SC(C)=C(SC)S3)cc2)S1 | > 100 | > 100 | > 100 µM |  | > 100 µM | > 100 | > 100 |  |  |  | > 100 |  | > 100 µM | > 100 |  | 92.5 | > 100 | > 100 | > 100 |
| CN(O)C(=O)c1ccc(OCc2cccc(Cl)c2)cc1 | > 100 | > 68.3 | > 100 µM |  | > 100 µM | > 100 | > 100 |  |  |  | > 100 |  | > 100 µM | 22.2 |  | > 51.6 | > 53.3 | > 100 | > 89.4 |
| CC1=NN(c2cccc(Cl)c2)C(=N/c2nc3ccccc3s2)/C1=C\c1ccccc1O | 49.4 | 74.3 |  |  | 60.4 µM | 70.1 | 61 |  |  |  | 48.7 |  | > 100 µM | 80.6 |  | > 100 | 45.4 | 81.1 | 63.7 |
| CC(=O)O[C@H]1CC[C@@]2(C)C(=CC[C@H]3[C@@H]4C[C@H](N5CCN(C)CC5)[C@H](OC(C)=O)[C@@]4(C)CC[C@@H]32)C1 | 34.9 | > 100 | 32.8 µM |  | 21.5 µM | 48.3 | 40.5 |  |  |  | 32.5 |  | 32.3 µM | 6.9 |  | 13.7 | 30.1 | 26.6 | 44.6 |
| COc1ccc(/C=C/C(=N/NC(=O)N/N=C(/C=C/c2ccc(OC)cc2)C(C)C)C(C)C)cc1 | > 100 | > 100 | > 100 µM |  | > 100 µM | > 100 | > 100 |  |  |  | > 100 |  | > 100 µM | > 100 |  | > 100 | > 100 | > 100 | > 100 |
| CCOc1cc(NC(C)=O)ccc1C(=O)NN1C(=O)C(Cl)C1c1ccc(O)c(OC)c1 (configuration not stated) | 22.8 | 30.3 | 35.1 µM |  | 38.5 µM | 25.4 |  |  |  |  | 28.3 |  | 33.6 µM | 38.3 |  | 26.8 | 32.2 | 29.9 | 57.4 |
| COc1ccc2c(c1OC)C(Br)CCC(Br)(Br)C2=O (configuration not stated) | 3.38 | 3.81 | 10.1 µM |  | 30.2 µM | 22.8 | 30.4 |  |  |  | 24.2 |  | 32.2 µM | 23.7 |  | 11.7 | 23.7 | 25.6 | 40.2 |
| O=C(c1c(F)c(F)c(F)c(F)c1F)n1c(=O)[nH]c2ccccc21 | 13.6 | 29.7 | 25.7 µM |  | 24 µM | 11.4 | 25.5 |  |  |  | 21.8 |  | 5.15 µM | 5.05 |  | 26.7 | 11.6 | 15.6 | 58.1 |
| Nc1c(O)c2c(c(O)c1Cl)C(=O)C=CC2=O | 28 | 18.8 | 3.32 µM |  | 6.02 µM | 4.89 | 15.8 |  |  |  | 14.8 |  | 13.3 µM | 6.13 |  | 7.76 | 11.9 | > 36.8 | > 32.6 |
| COc1ccc(-c2c(C#N)c(N)n(C3OCC(O)C(O)C3O)c(=S)c2C#N)cc1 (configuration not stated) | > 100 | > 100 |  |  | > 100 µM | > 100 |  |  |  |  | > 100 |  | > 100 µM | > 100 |  | > 100 | > 100 | > 100 | > 100 |
| Cc1ccc([N+](=O)[O-])cc1S(=O)(=O)Nc1ccc(C2=NOC(c3ccccc3)C2)cc1 (configuration not stated) | 30.1 | 50.4 | 33.8 µM |  | 10.5 µM | > 100 |  |  |  |  | > 100 |  | 18.5 µM | 25.2 |  | 33.4 | 25.8 | > 100 | 67.3 |
| O=c1oc2ccccc2cc1-c1nc2ccccc2c(=O)[nH]1 | > 100 | > 100 | > 100 µM |  |  |  | > 100 |  |  |  | > 100 |  | > 100 µM | > 100 |  | > 100 | > 100 | > 100 | > 100 |
